Assay results as given in ChEMBL document CHEMBL4828754, “Salicinoyl Quinic Acids and Their Prostaglandin E2 Production Inhibitory Activities from the Fruits of Casearia grewiifolia” (J Nat Prod, 2021).
Calls of active or inactive are those of the source. The calls are words filed in the database; no cut-off is given here.

Experiments:
[1] = Inhibition of ultraviolet B-irradiation upregulated of prostaglandin E2 production in human HaCaT cells measured after 2 hrs by ELISA; format: functional, cell-based; details: light or radiation study
[2] = system: HaCaT; test: Inhibition of ultraviolet B-irradiation upregulated of prostaglandin E2 production in human HaCaT cells at 10 uM measured after 2 hrs by ELISA relative to control; format: functional, cell-based

With `Oc1ccc(/C=C/c2cc(O)cc(O)c2)cc1` [RESVERATROL] as the compound, how does the IC50 [1] read?
The IC50 was 35.1 µM.

Which inhibition [2] does the source give for `CC(=O)O[C@@H]1C[C@](O)(C(=O)OCc2ccccc2O[C@@H]2O[C@H](CO)[C@@H](O)[C@H](O)[C@H]2O)C[C@@H](O)[C@H]1OC(=O)/C=C/c1ccccc1` here?
Its inhibition is “Active”.

Which IC50 [1] does the source give for `COC(=O)[C@]1(O)C[C@@H](O)[C@@H](OC(=O)/C=C/c2ccccc2)[C@H](O)C1` here?
The IC50 was 28.8 µM.

With `CC(=O)Oc1ccccc1C(=O)O` [ASPIRIN] as the compound, how does the IC50 [1] read?
The IC50 was 30.4 µM.

For `OCc1ccccc1O[C@@H]1O[C@H](CO)[C@@H](O)[C@H](O)[C@H]1O`, which inhibition [2] is on record?
The inhibition was “inactive”.

With `COC(=O)[C@]1(O)C[C@@H](O)[C@@H](OC(=O)c2ccccc2)[C@H](O[C@@H]2O[C@@H](C)[C@H](O)[C@@H](O)[C@H]2O)C1` as the compound, how does the inhibition [2] read?
The inhibition was “Active”.

For `CC(=O)O[C@@H]1[C@H](OC(C)=O)C[C@@](OC(=O)/C=C/c2ccccc2)(C(=O)OCc2ccccc2O[C@@H]2O[C@H](CO)[C@@H](O)[C@H](O)[C@H]2O)C[C@H]1O[C@@H]1O[C@H](CO)[C@@H](O)[C@H](O)[C@H]1O`, which inhibition [2] is on record?
The inhibition was “Active”.

With `CC(=O)O[C@@H]1C[C@](O)(C(=O)OCc2ccccc2O[C@@H]2O[C@H](CO)[C@@H](O)[C@H](O)[C@H]2O)C[C@@H](OC(C)=O)[C@H]1OC(=O)/C=C/c1ccccc1` as the compound, how does the IC50 [1] read?
Its IC50 is 20.5 µM.
